Laboratory results as given in ChEMBL document CHEMBL1155212, “Discovery and structure-activity relationships of a novel class of quinazoline glucokinase activators” (Bioorg Med Chem Lett, 2009).

Assays:
physchem = details: buffer, pH 7.4
[1] = Oral bioavailability in Sprague-Dawley rat at 3 mg/kg; assay type: ADME, organism-based; details: in vivo
[2] = Cmax in Sprague-Dawley rat at 3 mg/kg; assay type: ADME, organism-based; set-up: dose 3 mg/kg; details: in vivo
[3] = Tmax in Sprague-Dawley rat at 3 mg/kg; assay type: ADME, organism-based; set-up: dose 3 mg/kg; details: in vivo
[4] = Half life in Sprague-Dawley rat at 1 mg/kg, iv; assay type: ADME, organism-based; set-up: dose 1 mg/kg, route intravenous; details: in vivo
[5] = Volume of distribution at steady state in Sprague-Dawley rat at 1 mg/kg, iv; assay type: ADME, organism-based; set-up: dose 1 mg/kg, route intravenous; details: in vivo, read-out: Vdss
[6] = Plasma clearance in Sprague-Dawley rat at 1 mg/kg, iv; assay type: ADME, organism-based; set-up: dose 1 mg/kg, route intravenous
[7] = AUC (0 to infinity) in Sprague-Dawley rat at 1 mg/kg, iv; assay type: ADME, organism-based; set-up: time infinity, dose 1 mg/kg, route intravenous; details: plasma
[8] = AUC (0 to infinity) in Sprague-Dawley rat at 3 mg/kg; assay type: ADME, organism-based; set-up: dose 3 mg/kg, time infinity; details: plasma

logD (physchem)	SMILES	also measured
2.4	Cn1ccc(Nc2ncnc3ccc(Oc4ncccc4F)cc23)n1	–
4.3	Cc1csc(Nc2ncnc3ccc(Oc4ccccc4S(C)(=O)=O)cc23)n1	–
2.1	Cc1cccc(S(C)(=O)=O)c1Oc1ccc2ncnc(Nc3ccn(C)n3)c2c1	–
3.6	Cn1ccc(Nc2ncnc3ccc(Oc4ccc(F)cc4F)cc23)n1	–
2.5	Cc1cnc(Nc2ncnc3ccc(Oc4c(F)cccc4S(C)(=O)=O)cc23)cn1	–
2.3	Cn1ccc(Nc2ncnc3ccc(Oc4c(Cl)cccc4S(C)(=O)=O)cc23)n1	–
3.4	Cn1ccc(Nc2ncnc3ccc(Oc4ncccc4Br)cc23)n1	–
3.1	Cc1nsc(Nc2ncnc3ccc(Oc4c(F)cccc4S(C)(=O)=O)cc23)n1	–
3.6	CS(=O)(=O)c1cccc(F)c1Oc1ccc2ncnc(Nc3ccccn3)c2c1	–
1.9	Cn1ccc(Nc2ncnc3ccc(Oc4c(F)cccc4S(C)(=O)=O)cc23)n1	bioavailability [1]: 71%; Cmax [2]: 5.8 µM; Tmax [3]: 54 min; half-life [4]: 78 min; Vd [5]: 0.5 L/kg; clearance [6]: 6.8 mL/min/kg; AUC(0-inf) [7]: 6.3 µM·h; AUC(0-inf) [8]: 13.3 µM·h
2.1	Cn1ccc(Nc2ncnc3ccc(Oc4ccccn4)cc23)n1	–
1.4	CN(C)C(=O)c1cccnc1Oc1ccc2ncnc(Nc3ccn(C)n3)c2c1	–
2	CS(=O)(=O)c1cccc(F)c1Oc1ccc2ncnc(Nc3cccnn3)c2c1	–
3.7	Cn1ccc(Nc2ncnc3ccc(Oc4c(F)cccc4F)cc23)n1	–
3.4	Cc1cccc(C#N)c1Oc1ccc2ncnc(Nc3ccn(C)n3)c2c1	–
1.8	CS(=O)(=O)c1cccc(F)c1Oc1ccc2ncnc(Nc3cc[nH]n3)c2c1	–
1.7	Cn1ccc(Nc2ncnc3ccc(Oc4ncccc4CO)cc23)n1	–
2.9	Cn1ccc(Nc2ncnc3ccc(Oc4ncccc4Cl)cc23)n1	–
2.4	CCn1ccc(Nc2ncnc3ccc(Oc4c(F)cccc4S(C)(=O)=O)cc23)n1	–
1.9	Cn1ccc(Nc2ncnc3ccc(Oc4ccccc4S(C)(=O)=O)cc23)n1	–
2.2	CS(=O)(=O)c1cccc(F)c1Oc1ccc2ncnc(Nc3cnccn3)c2c1	–
5.8	Cc1csc(Nc2ncnc3ccc(Oc4ccc(F)cc4)cc23)n1	–
5.8	Cc1csc(Nc2ncnc3ccc(Oc4ccccc4F)cc23)n1	–
1.7	Cn1ccc(Nc2ncnc3ccc(Oc4ccncn4)cc23)n1	–
